What was measured:
HDAC10 = molecular target: T1, HDAC10 (Homo sapiens, UniProt Q969S8); conditions: prostate cancer cells; cited from earlier work
T1 sequence (Q969S8 1-669): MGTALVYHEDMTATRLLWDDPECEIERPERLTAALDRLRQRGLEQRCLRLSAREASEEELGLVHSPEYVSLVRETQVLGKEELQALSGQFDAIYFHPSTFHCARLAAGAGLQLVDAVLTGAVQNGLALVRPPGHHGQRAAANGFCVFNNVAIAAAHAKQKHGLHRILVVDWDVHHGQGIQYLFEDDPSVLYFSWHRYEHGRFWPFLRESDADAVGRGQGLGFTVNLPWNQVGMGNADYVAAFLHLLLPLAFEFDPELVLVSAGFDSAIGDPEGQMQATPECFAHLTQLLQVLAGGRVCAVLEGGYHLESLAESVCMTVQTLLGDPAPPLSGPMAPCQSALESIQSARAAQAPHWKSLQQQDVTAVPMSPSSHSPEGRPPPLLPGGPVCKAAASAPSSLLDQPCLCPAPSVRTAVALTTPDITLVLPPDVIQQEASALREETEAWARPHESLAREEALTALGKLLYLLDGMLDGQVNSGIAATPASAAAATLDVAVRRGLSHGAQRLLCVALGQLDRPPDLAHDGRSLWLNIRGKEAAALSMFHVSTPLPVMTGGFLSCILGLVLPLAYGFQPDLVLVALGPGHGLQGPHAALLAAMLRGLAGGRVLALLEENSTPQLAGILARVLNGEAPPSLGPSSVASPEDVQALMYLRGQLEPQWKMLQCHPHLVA

HDAC4 = HDAC4 (Homo sapiens, UniProt P56524); conditions: prostate cancer cells; cited from earlier work
Chain of HDAC4 (P56524 whole entry, species assumed): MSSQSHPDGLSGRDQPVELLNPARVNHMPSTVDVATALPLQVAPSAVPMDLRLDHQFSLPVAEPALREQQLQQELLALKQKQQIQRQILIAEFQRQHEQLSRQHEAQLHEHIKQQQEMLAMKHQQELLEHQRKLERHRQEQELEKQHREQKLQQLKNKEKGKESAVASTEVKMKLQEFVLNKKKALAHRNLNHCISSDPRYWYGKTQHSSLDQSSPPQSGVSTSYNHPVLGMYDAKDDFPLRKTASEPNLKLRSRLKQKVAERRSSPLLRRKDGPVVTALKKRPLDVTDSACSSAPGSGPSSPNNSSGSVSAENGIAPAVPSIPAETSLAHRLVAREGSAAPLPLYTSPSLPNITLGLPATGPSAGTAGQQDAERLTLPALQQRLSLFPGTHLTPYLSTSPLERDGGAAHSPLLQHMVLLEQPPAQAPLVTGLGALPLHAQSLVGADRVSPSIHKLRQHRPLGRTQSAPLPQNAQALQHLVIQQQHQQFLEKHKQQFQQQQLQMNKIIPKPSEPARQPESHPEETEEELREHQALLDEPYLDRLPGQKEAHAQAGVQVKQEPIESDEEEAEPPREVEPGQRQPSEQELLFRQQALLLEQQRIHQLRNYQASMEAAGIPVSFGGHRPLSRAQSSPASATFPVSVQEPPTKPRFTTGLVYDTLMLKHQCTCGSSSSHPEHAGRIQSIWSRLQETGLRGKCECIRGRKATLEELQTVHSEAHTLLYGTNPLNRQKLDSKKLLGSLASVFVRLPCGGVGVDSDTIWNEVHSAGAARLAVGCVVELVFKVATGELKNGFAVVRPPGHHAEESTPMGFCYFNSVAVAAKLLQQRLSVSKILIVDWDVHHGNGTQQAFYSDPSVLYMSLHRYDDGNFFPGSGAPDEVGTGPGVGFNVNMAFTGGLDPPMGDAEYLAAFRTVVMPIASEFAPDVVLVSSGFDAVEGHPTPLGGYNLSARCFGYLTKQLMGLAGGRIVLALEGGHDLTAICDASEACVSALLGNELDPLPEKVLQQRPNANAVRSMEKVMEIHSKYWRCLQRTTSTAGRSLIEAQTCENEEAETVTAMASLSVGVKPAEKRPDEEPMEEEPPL

[1] = test system: IPF myofibroblasts of CCL-191 line; assay: Expression of specific genes in IPF myofibroblasts incubated with CMH (Table 1); assay type: cell-based, human; conditions: CCL-191 incubated with CMH; 2-^ΔΔCt, mean±standard error
Experimental: Table 1 below indicates the expression of specific genes in IPF myofibroblasts of CCL-191 line incubated with CMH and the vehicle, correspondingly, calculated by 2-^ΔΔCt the data is represented as mean±standard error).

Ku70 = assay: Ku70-IP and immunoblots of myofibroblasts isolated from lungs of BLM-treated mice given CMH; assay type: in vivo, mouse; conditions: CMH 30 μM OA day 6, sacrifice day 14
Experimental: Oropharyngeal aspiration (OA) and induction of lung fibrosis in mice Oropharyngeal aspiration of BLM (OA-BLM) was performed as detailed in Golan-Gerstl et al., Am. J. Respir. Cell Mol. Biol. 36: 270-275, 2007. Lung fibrosis was assessed via semi-quantitative morphological index (Wallach-Dayan et al., PNAS USA 104: 20460-20465, 2007). Lung collagen was measured using a Sircol Collagen Assay kit (Biocolor, Belfast, Northern Ireland), and standard protocol of trichrome staining. Isolation of mouse lung myofibroblasts Myofibroblast isolation and culture was performed as described in Golan-Gerstl et al., Am. J. Respir. Cell Mol. Biol. 36: 270-275, 2007; and Wallach-Dayan et al., PNAS USA 104: 20460-20465, 2007.
Immunoprecipitation and immunoblotting Standard protocols were performed as described in Golan-Gerstl et al., Am. J. Respir. Cell Mol. Biol. 47: 271-279, 2012.
CMH (30 μM) or control vehicle 4% DMSO were administered into WT mice by a second OA on day 6 of OA-BLM (0.05 mU), or control-saline (FIG. 6A). Similar to SIRT1^y/y mice, BLM-treated mice and control saline-treated mice (FIG. 6B) that were exposed to CMH vs. vehicle alone, had low SIRT1 and FLIP expression in lung sections. Myofibroblasts isolated from lungs of BLM-treated mice had decreased Ku70 binding to SIRT1 from 1.2 to 0.6 (FIG. 6C), increased Ku70 acetylation from an OD of 0.1 to 0.91 (FIG. 6D), and decreased Ku70/FLIP complex from an OD of 2.43 to 1.55 (FIG. 6E). Compared to vehicle, CMH-treated mice reduced H&E and collagen-trichrome staining (FIG. 6F, upper and lower panels, respectively), SMI grade (average SMI from 2 to 1.1, FIG. 6G), and collagen in Sircol assay (from 200 μg to only 50 μg, FIG. 6H). Thus, In vivo inhibition of SIRT1 activity, FLIP expression, and lung fibrosis were detected in CMH-BLM-treated mice and attenuation of deacetylation activity on Ku70, a decrease in Ku70/FLIP complex, and FLIP expression levels were detected in myofibroblasts isolated from lungs of CMH-BLM-treated mice. […]

IPF cell line ATCC191 = assay: Total cell-lysate pan-acetyl immunoblot; assay type: cell-based, human; conditions: CMH 30 μM; vehicle 0.62
Experimental: IPF cell line ATCC191 and Normal cell line ATCC151 (0.5×10^6, 191 and 151, respectively), were cultured (10% DMEM) and total cell acetylations was compared. IPF cell line ATCC191 were further exposed in culture (10% DMEM) to CMH (30 μM, vs. 4% DMSO (vehicle)). Total cell-lysate immunoblots with subsequent pan-acetyl in IPF-lung vs. normal-lung myofibroblasts (191 vs. 151) was measured (FIG. 7A). IPF-lung myofibroblasts treated with CMH were compared to control treatment with vehicle (FIG. 7B). […] Thus, CMH inhibits IPF cell proteins-deacetylation and normalized it.

Cc1cc(Cl)ccc1OCCCC(=O)NO [CMH, 4-(4-chloro-2-methylphenoxy)-N-hydroxybutanamide]
Inhibition of HDAC10 (HDAC10): not inhibited
Inhibition of HDAC4 (HDAC4): not inhibited
AIFM1 expression, M ± m [1]: 12.3 ± 2.89
BAX expression, M ± m [1]: 319.29 ± 78.06
BCL2L10 expression, M ± m [1]: 0.13 ± 0.05
BCL2L11 expression, M ± m [1]: 0.58 ± 0.09
CASP8 expression, M ± m [1]: 7.13 ± 4.18
CASP9 expression, M ± m [1]: 9.57 ± 6.69
CFLAR expression, M ± m [1]: 3.5 ± 1.42
CFLAR-AS1 expression, M ± m [1]: 0.11 ± 0.04
DIABLO expression, M ± m [1]: 13.48 ± 3.27
E2F1 expression, M ± m [1]: 0.39 ± 0.21
HIC1 expression, M ± m [1]: 0.68 ± 0.44
MCL1 expression, M ± m [1]: 67.57 ± 34.04
PPP1R13B expression, M ± m [1]: 0.1 ± 0.05
PRKCD expression, M ± m [1]: 9 ± 4
PRKCDBP expression, M ± m [1]: 21.87 ± 9.21
SIRT1 expression, M ± m [1]: 0.48 ± 0.04
TP53AIP1 expression, M ± m [1]: 1.11 ± 0.2
TP53INP2 expression, M ± m [1]: 8.16 ± 0.54
TP53 expression, M ± m [1]: 1.8 ± 1.19
XRCC6 expression, M ± m [1]: 84.85 ± 22.88
Ku70 acetylation OD (Ku70-IP, pan-acetyl IB) (Ku70; from 0.1): 0.91 OD
Ku70 binding to SIRT1 (Ku70-IP, SIRT1 IB) (Ku70; from 1.2): 0.6
Ku70/FLIP complex OD (Ku70-IP, FLIP IB) (Ku70; from 2.43): 1.55 OD
Protein acetylation, optical density ratio to GAPDH (OD) in pan-acetyl immunoblots (IPF cell line ATCC191): 1.77 OD

— patent publication US12630501B2, “Anti-fibrotic compounds and use thereof” (HADASIT MEDICAL RESEARCH SERVICES AND DEVELOPMENT LTD., priority 2019, dated 2026)
